The values that follow come from patent publication US20170145002A1, “DEUTERATED ISOXAZOLE DERIVATIVES AND THEIR USE AS METABOTROPIC GLUTAMATE RECEPTOR POTENTIATORS” (AstraZeneca AB, priority 2015, published 2017).

The target in data set [1] is CYP3A4 (Homo sapiens, UniProt P08684). The experiment in a line: CYP isoform phenotyping. In kind it is in vitro ADME. The conditions noted are these: for Contribution of CYP3A4 to metabolism (in words): assay conditions of Example 8; for CYP 3A4 (% contribution): recombinant human CYP isozymes, parent disappearance. As to the method:
This assay was used to determine whether Compounds A, B, C and D are metabolised by CYP enzymes.
Solutions (200 μmol/L) of each Compound A, B, C and D as well as of positive controls (phenacetin for CYP1A2, coumarin for CYP2A6, bupropion for CYP2B6, amitriptyline for CYP2C8, 2C19, 2D6 and 3A4, diclofenac for CYP2C9, chlorzoxazone for CYP2E1, midazolam for CYP3A5) were prepared by adding 4 μL of a 10 mmol/L stock solution in DMSO to 196 μL of acetonitrile. The recombinant human CYP isozymes were thawed on wet ice (over an hour). Mixtures (2670 μL) of CYP isozymes in phosphate buffer containing 112.36 nmol/L CYP1A2, 2A6, 2B6, 2C8, 2C9, 2C19, 2D6, 2E1, 3A4 or 3A5 were prepared. The CYP isozyme mixture (222.5 [EL), 25 μL of 10 mmol/L of NADPH solution and 2.5 μL of vehicle control (2: 98 DMSO/acetonitrile) were added to the blank control plate. The resulting mixture was mixed on a whirly mixer for 10 seconds before a stop solution (1000 μL) with internal standard containing 200 nmol/L of 5,5-diethyl-1,3-diphenyl-2-iminobarbituric acid and 100 nmol/L of tolbutamide was added. The blank control plate was sealed with a lid and mixed on whirly mixer for 120 seconds, and kept on ice prior to centrifugation.
The standard samples containing 200 pmol/mL hydroxybupropion and 40 pmol/mL 6-hydroxychlorzoxazone were obtained as follows: the CYP isozyme mixture (222.5 μL) and 25 μL of 10 mmol/L NADPH solution were added to separate wells of the blank control plate. 2.5 μL of a 20 nmol/mL hydroxybupropion solution was added to one well and 2.5 μL of a 4 nmol/mL 6-hydroxychlorzoxazone solution was added to the other well. Mixing was conducted on a whirly mixer for 10 seconds. The stop solution with internal standard (1000 μL) was added to both wells. The blank control plate was sealed with a lid and mixing was conducted on a whirly mixer for 120 seconds. The blank control plate was kept on ice prior to centrifugation.
The CYP isozyme mixtures (222.5 μL) and Compounds A, B, C, D and the positive controls (2.5 μL of each 200 μmol/L solution) were added to the incubation plates. Mixing on a whirly mixer was conducted for 10 seconds. The incubation plate was pre-warmed at 37° C. for 15 minutes. The CYP/compound mixture (27 μL) was transferred from the incubation plate to the 0 minute “Quenching plates” containing 120 μL of the stop solution and 3 μL of a 10 mmol/L NADPH solution. The 0 minute “Quenching plates” was sealed with a lid and kept on ice. Mixing of the 0 minute “Quenching plates” on a whirly mixer was conducted for 120 seconds. The reaction was initiated with the addition of 22 μL of a 10 mmol/L of NADPH solution to the incubation plate. Mixing of the incubation mixture on a whirly mixer was conducted for 10 seconds. The incubation was carried out at 37° C. At 5, 10, 15 and 25 minutes, the incubation mixture was mixed on a whirly mixer for 10 seconds and samples of the incubated mixture (30 μL) were transferred at each time point to wells in a separate “Quenching plate” containing 120 μL of the stop solution, which was sealed with a lid and kept on ice. Mixing on a whirly mixer was conducted for 120 seconds. […]
All calculations are carried out using Microsoft Excel. Peak areas were determined from extracted ion chromatograms. The percentage of parent remaining was calculated from peak area of Compounds A, B, C, D and positive controls. […]

Data set [2] is described as follows: Metabolic stability and intrinsic clearance in human liver microsomes (HLM). The class given is in vitro ADME. The following applies: pooled human liver microsomes, NADPH, 37° C., 0.5-30 minutes; for microsomal CLint at 1 μM: read-out: Human Liver Microsomes Median CLint; for half-life at 1 μM: read-out: Human Liver Microsomes Median t1/2. On the procedure:
This assay was used to measure the in vitro metabolic stability of Compounds A, B, C and D of the application in pooled human liver microsomes. The concentration of parent compound in the reaction system for calculating intrinsic clearance of the compounds and estimating their stability in pooled human liver microsomes was evaluated by LC/MS/MS. 100 μmol/L solutions of each Compound A, B, C and D as well as 100 μmol/L solutions of each positive control compound (i.e., phenacetin, verapamil, diclofenac, imiprimine, benzydamine and metoprolol) were prepared by adding 2 μL of 10 mmol/L stock solution in DMSO to 198 μL of acetonitrile. A 1.1236 mg/mL HLM mixture was prepared by adding 1325 μL of 20 mg/mL HLM to 22260 μL of phosphate buffer. The HLM mixture (222.5 μL of the 1.1236 mg/mL mixture) and 25 μL of a 10 mM NADPH solution were added to the incubation plates. After mixing on a whirly mixer for 10 seconds, the incubation plates were pre-warmed at 37° C. for 8 minutes. The solutions of Compounds A, B, C and D (2.5 μL of the 100 μM solutions prepared before) as well as positive control solutions (2.5 μL of the 100 μM solutions prepared before) were added to the incubation plate. The incubation mixture was mixed on a whirly mixer for 10 seconds and incubation was carried out at 37° C. The reaction was quenched by transferring 20 μL of the incubated mixture at 0.5, 5, 10, 15, 20 and 30 minutes into the quenching plate containing 100 μL of cold acetonitrile. The quenching plates at 4000 rpm were centrifuged for 20 minutes, placed at 4 ° C. for 30 minutes, then re-centrifuged at 4000 rpm for 20 minutes to precipitate protein. The supernatant of each compound (40 μL) was transferred into a 96-well analysis plate. Compounds A, B, C and D were pooled together into one cassette, and pure water (160 μL) was added in each well. All incubations were performed in singlicate. API 4000 (AB sciex, USA) Ultra mass spectrometer was used to carry out the samples analysis in the MRM mode (MS/MS). Peak areas were determined from extracted ion chromatograms. Percentage of parent compound remaining was calculated from peak area of each compound or positive control. The slope value, k, was determined by linear regression of the natural logarithm of percent parent remaining vs. incubation time curve.
All calculations were carried out using Microsoft Excel. The in vitro half-life (in vitro t1/2) was determined from the slope value, wherein in vitro t1/2=−(0.693/k). Conversion of the in vitrot1/2 (in min) into the in vitro intrinsic clearance (in vitro CLint, in μL/min/mg proteins) was done by using the following equation:
in vitro CLint=(0.693/t1/2)*(volume of incubation (μL)/amount of proteins (mg)).
For orientation: Liver microsomes are vesicles of endoplasmic reticulum, rich in cytochrome P450 enzymes.

CYP3A4, sequence (P08684 whole entry, canonical isoform): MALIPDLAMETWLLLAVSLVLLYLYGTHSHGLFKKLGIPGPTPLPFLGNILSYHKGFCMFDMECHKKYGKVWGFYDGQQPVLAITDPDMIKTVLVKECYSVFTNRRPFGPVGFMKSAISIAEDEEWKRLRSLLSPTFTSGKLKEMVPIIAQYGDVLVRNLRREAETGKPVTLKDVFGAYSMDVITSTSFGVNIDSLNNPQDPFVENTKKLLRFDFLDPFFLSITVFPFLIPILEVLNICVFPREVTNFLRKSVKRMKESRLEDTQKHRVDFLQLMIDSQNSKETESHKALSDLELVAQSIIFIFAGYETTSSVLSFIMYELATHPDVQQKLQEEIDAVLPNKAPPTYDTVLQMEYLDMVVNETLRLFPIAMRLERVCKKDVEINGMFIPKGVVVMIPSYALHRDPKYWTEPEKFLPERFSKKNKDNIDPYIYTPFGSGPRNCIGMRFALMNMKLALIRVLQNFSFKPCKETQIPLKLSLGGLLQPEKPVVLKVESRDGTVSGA

As for `[2H]C1([2H])OC([2H])([2H])C([2H])([2H])N(C(=O)c2cc(-c3cc(Cl)c4c(c3)CN([C@@H](C)C3CC3)C4=O)on2)C1([2H])[2H]` [Compound A, (S)-7-chloro-2-(1-cyclopropylethyl)-5-(3-(morpholine-4-carbonyl-2,2,3,3,5,5,6,6-d8)isoxazol-5-yl)isoindolin-1-one], in data set [1], the “Contribution of CYP3A4 to metabolism (in words)” value was “no measureable contribution”. In addition, in data set [2], the microsomal CLint at 1 μM is below 3 µL/min/mg and the half-life at 1 μM was above 3.85 h.
Turning to `[2H]C1([2H])CN(C(=O)c2cc(-c3cc(Cl)c4c(c3)CN([C@@H](C)C3CC3)C4=O)on2)CC([2H])([2H])O1` [Compound B, (S)-7-chloro-2-(1-cyclopropylethyl)-5-(3-(morpholine-4-carbonyl-2,2,6,6-d4)isoxazol-5-yl)isoindolin-1-one], the “CYP 3A4 (% contribution)” value in data set [1] was determined as 82.3%. Also, in data set [2], the microsomal CLint at 1 μM was 9.5 µL/min/mg and the half-life at 1 μM was found to be 1.22 h.
On the same counts, the results for `[2H]C1([2H])COCC([2H])([2H])N1C(=O)c1cc(-c2cc(Cl)c3c(c2)CN([C@@H](C)C2CC2)C3=O)on1` [Compound C, (S)-7-chloro-2-(1-cyclopropylethyl)-5-(3-(morpholine-4-carbonyl-3,3,5,5-d4)isoxazol-5-yl)isoindolin-1-one] are 99.7%, 7 µL/min/mg and 1.66 h.
As to `C[C@@H](C1CC1)N1Cc2cc(-c3cc(C(=O)N4CCOCC4)no3)cc(Cl)c2C1=O` [Compound D, (S)-7-chloro-2-(1-cyclopropylethyl)-5-(3-(morpholine-4-carbonyl)isoxazol-5-yl)isoindolin-1-one, reference compound], in data set [1], the “Contribution of CYP3A4 to metabolism (in words)” value is recorded as “metabolized predominately by CYP3A4” and the “CYP 3A4 (% contribution)” value came to 100%. In data set [2], the microsomal CLint at 1 μM worked out at 9.5 µL/min/mg and the half-life at 1 μM was 1.22 h.
